Reference: ChEMBL document CHEMBL4261593, “Synthesis and antibacterial activity of novel 3-O-arylalkylcarbamoyl-3-O-descladinosyl-9-O-(2-chlorobenzyl)oxime clarithromycin derivatives” (2018)
Values after ≈ are worked out from the molar mass of the structure shown.

Legend:
Assay type in all cases: functional
[1] = tested on: Streptococcus pyogenes; test: Antibacterial activity against erythromycin-susceptible Streptococcus pyogenes 1 after 24 hrs by broth dilution assay; conditions: Streptococcus pyogenes, 1, 24 h
[2] = tested on: Staphylococcus aureus; test: Antibacterial activity against erythromycin-susceptible Staphylococcus aureus ATCC 25923 after 24 hrs by broth dilution assay; conditions: ATCC 25923, 24 h
[3] = tested on: Escherichia coli; test: Antibacterial activity against penicillin-susceptible Escherichia coli ATCC 25922 after 24 hrs by broth dilution assay; conditions: ATCC 25922, 24 h
[4] = tested on: Pseudomonas aeruginosa; test: Antibacterial activity against penicillin-susceptible Pseudomonas aeruginosa ATCC 27853 after 24 hrs by broth dilution assay; conditions: ATCC 27853, 24 h
[5] = tested on: Bacillus subtilis; test: Antibacterial activity against penicillin-susceptible Bacillus subtilis ATCC 9372 after 24 hrs by broth dilution assay; conditions: ATCC 9372, 24 h
[6] = tested on: Staphylococcus aureus; test: Antibacterial activity against […] Staphylococcus aureus ATCC 29213 after 24 hrs by broth dilution assay; conditions: ATCC 29213, 24 h
[7] = tested on: Staphylococcus aureus; test: Antibacterial activity against penicillin-resistant Staphylococcus aureus ATCC 31007 after 24 hrs by broth dilution assay; conditions: ATCC 31007, 24 h
[8] = tested on: Streptococcus pyogenes; test: Antibacterial activity against erythromycin-resistant Streptococcus pyogenes 2 after 24 hrs by broth dilution assay; conditions: Streptococcus pyogenes, 2, 24 h
[9] = tested on: Streptococcus pneumoniae; test: Antibacterial activity against erythromycin-resistant Streptococcus pneumoniae A22072 expressing mefA gene after 24 hrs by broth dilution assay; conditions: A22072, 24 h
[10] = tested on: Streptococcus pneumoniae; test: Antibacterial activity against erythromycin-resistant Streptococcus pneumoniae B1 expressing ermB gene after 24 hrs by broth dilution assay; conditions: B1, 24 h
[11] = tested on: Streptococcus pneumoniae; test: Antibacterial activity against erythromycin-resistant Streptococcus pneumoniae AB11 expressing ermB and mefA genes after 24 hrs by broth dilution assay; conditions: AB11, 24 h
[12] = tested on: Streptococcus pyogenes; test: Potency index, ratio of CAM MIC to compound MIC for antibacterial activity against erythromycin-resistant Streptococcus pyogenes 2
[13] = tested on: Streptococcus pyogenes; test: Potency index, ratio of AZM MIC to compound MIC for antibacterial activity against erythromycin-resistant Streptococcus pyogenes 2
[14] = tested on: Streptococcus pneumoniae; test: Potency index, ratio of CAM MIC to compound MIC for antibacterial activity against erythromycin-resistant Streptococcus pneumoniae A22072
[15] = tested on: Streptococcus pneumoniae; test: Potency index, ratio of AZM MIC to compound MIC for antibacterial activity against erythromycin-resistant Streptococcus pneumoniae A22072
[16] = tested on: Staphylococcus aureus; test: Potency index, ratio of CAM MIC to compound MIC for antibacterial activity against penicillin-resistant Staphylococcus aureus ATCC 31007
[17] = tested on: Staphylococcus aureus; test: Potency index, ratio of AZM MIC to compound MIC for antibacterial activity against penicillin-resistant Staphylococcus aureus ATCC 31007

SMILES | MIC [1] [µg/mL] | MIC [2] [µg/mL] | MIC [3] [µg/mL] | MIC [4] [µg/mL] | MIC [5] [µg/mL] | MIC [6] [µg/mL] | MIC [7] [µg/mL] | MIC [8] [µg/mL] | MIC [9] [µg/mL] | MIC [10] [µg/mL] | MIC [11] [µg/mL] | Ratio [12] | Ratio [13] | Ratio [14] | Ratio [15] | Ratio [16] | Ratio [17]
CC[C@H]1OC(=O)[C@H](C)[C@@H](OC(=O)NCCc2ccc(O)cc2)[C@H](C)[C@@H](O[C@@H]2O[C@H](C)C[C@H](N(C)C)[C@H]2O)[C@](C)(OC)C[C@@H](C)/C(=N/OCc2ccccc2Cl)[C@H](C)[C@@H](O)[C@]1(C)O | 0.5 (≈ 0.56 µM) | 4 (≈ 4.48 µM) | 128 (≈ 143 µM) | 128 (≈ 143 µM) | 1 (≈ 1.12 µM) | 128 (≈ 143 µM) | 4 (≈ 4.48 µM) | 8 (≈ 8.96 µM) | 0.25 (≈ 0.28 µM) | 128 (≈ 143 µM) | 128 (≈ 143 µM) | 32 | 32 | – | – | – | –
CCCNC(=O)O[C@H]1[C@H](C)[C@@H](O[C@@H]2O[C@H](C)C[C@H](N(C)C)[C@H]2O)[C@](C)(OC)C[C@@H](C)/C(=N/OCc2ccccc2Cl)[C@H](C)[C@@H](O)[C@](C)(O)[C@@H](CC)OC(=O)[C@@H]1C | 1 (≈ 1.23 µM) | 8 (≈ 9.82 µM) | 128 (≈ 157 µM) | 128 (≈ 157 µM) | 2 (≈ 2.46 µM) | 128 (≈ 157 µM) | 16 (≈ 19.6 µM) | 8 (≈ 9.82 µM) | 0.125 (≈ 0.153 µM) | 128 (≈ 157 µM) | 128 (≈ 157 µM) | 32 | 32 | 16 | 32 | – | –
CCCCNC(=O)O[C@H]1[C@H](C)[C@@H](O[C@@H]2O[C@H](C)C[C@H](N(C)C)[C@H]2O)[C@](C)(OC)C[C@@H](C)/C(=N/OCc2ccccc2Cl)[C@H](C)[C@@H](O)[C@](C)(O)[C@@H](CC)OC(=O)[C@@H]1C | 1 (≈ 1.21 µM) | 4 (≈ 4.83 µM) | 128 (≈ 154 µM) | 128 (≈ 154 µM) | 2 (≈ 2.41 µM) | 128 (≈ 154 µM) | 8 (≈ 9.66 µM) | 8 (≈ 9.66 µM) | 0.5 (≈ 0.604 µM) | 128 (≈ 154 µM) | 128 (≈ 154 µM) | 32 | 32 | – | – | – | –
CC[C@H]1OC(=O)[C@H](C)[C@@H](OC(=O)NCc2cccc(F)c2)[C@H](C)[C@@H](O[C@@H]2O[C@H](C)C[C@H](N(C)C)[C@H]2O)[C@](C)(OC)C[C@@H](C)/C(=N/OCc2ccccc2Cl)[C@H](C)[C@@H](O)[C@]1(C)O | 1 (≈ 1.14 µM) | 4 (≈ 4.54 µM) | 128 (≈ 145 µM) | 128 (≈ 145 µM) | 2 (≈ 2.27 µM) | 128 (≈ 145 µM) | 4 (≈ 4.54 µM) | 8 (≈ 9.09 µM) | 0.5 (≈ 0.568 µM) | 128 (≈ 145 µM) | 128 (≈ 145 µM) | 32 | 32 | – | – | 64 | 64
CC[C@H]1OC(=O)[C@H](C)[C@@H](OC(=O)NCc2ccc(Cl)cc2)[C@H](C)[C@@H](O[C@@H]2O[C@H](C)C[C@H](N(C)C)[C@H]2O)[C@](C)(OC)C[C@@H](C)/C(=N/OCc2ccccc2Cl)[C@H](C)[C@@H](O)[C@]1(C)O | 2 (≈ 2.23 µM) | 8 (≈ 8.92 µM) | 128 (≈ 143 µM) | 128 (≈ 143 µM) | 2 (≈ 2.23 µM) | 128 (≈ 143 µM) | 4 (≈ 4.46 µM) | 8 (≈ 8.92 µM) | 0.5 (≈ 0.557 µM) | 128 (≈ 143 µM) | 128 (≈ 143 µM) | 32 | 32 | – | – | 64 | 64
CC[C@H]1OC(=O)[C@H](C)[C@@H](OC(=O)NCc2ccccc2OC)[C@H](C)[C@@H](O[C@@H]2O[C@H](C)C[C@H](N(C)C)[C@H]2O)[C@](C)(OC)C[C@@H](C)/C(=N/OCc2ccccc2Cl)[C@H](C)[C@@H](O)[C@]1(C)O | 4 (≈ 4.48 µM) | 16 (≈ 17.9 µM) | 128 (≈ 143 µM) | 128 (≈ 143 µM) | 4 (≈ 4.48 µM) | 128 (≈ 143 µM) | 4 (≈ 4.48 µM) | 16 (≈ 17.9 µM) | 1 (≈ 1.12 µM) | 128 (≈ 143 µM) | 128 (≈ 143 µM) | – | – | – | – | – | –
CC[C@H]1OC(=O)[C@H](C)[C@@H](OC(=O)NCc2ccc(OC)cc2)[C@H](C)[C@@H](O[C@@H]2O[C@H](C)C[C@H](N(C)C)[C@H]2O)[C@](C)(OC)C[C@@H](C)/C(=N/OCc2ccccc2Cl)[C@H](C)[C@@H](O)[C@]1(C)O | 4 (≈ 4.48 µM) | 16 (≈ 17.9 µM) | 128 (≈ 143 µM) | 128 (≈ 143 µM) | 4 (≈ 4.48 µM) | 128 (≈ 143 µM) | 8 (≈ 8.96 µM) | 16 (≈ 17.9 µM) | 2 (≈ 2.24 µM) | 128 (≈ 143 µM) | 128 (≈ 143 µM) | – | – | – | – | – | –
